From ChEMBL document CHEMBL1201862, “PubChem BioAssay data set” (2004)
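96-well plates; 48 h exposure; 5 concentrations. Endpoints by linear interpolation between flanking doses. Not reached: highest tested concentration assigned. At the GI50, growth is halved.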 Activity calls are given as the source filed them. Rule as the data show it: active = GI50 up to about 1.1 µM and inactive = higher.

Assays:
Experiment in all cases: DTP human tumour cell line panel, 48 h
[1] = test system: MOLT-4
[2] = test system: KM12
[3] = test system: MDA-N
[4] = test system: HCC 2998
[5] = test system: SK-MEL-28
[6] = test system: HL-60
[7] = test system: SK-MEL-5
[8] = test system: Hs-578T
[9] = test system: LOX IMVI
[10] = test system: OVCAR-4
[11] = test system: MCF7
[12] = test system: 786-0
[13] = test system: NCI/ADR-RES
[14] = test system: U-251
[15] = test system: Malme-3M
[16] = test system: T47D
[17] = test system: UO-31
[18] = test system: HOP-62
[19] = test system: A498

SMILES: O=C1NC(N2CCCC(CO)C2)=N/C1=C\c1ccccc1 (stereo not given)
- GI50 [1]: > 100 µM (inactive)
- GI50 [2]: > 100 µM (inactive)
- GI50 [3]: > 100 µM (inactive)
- GI50 [4]: > 100 µM (inactive)
- GI50 [5]: > 100 µM (inactive)
- GI50 [6]: > 100 µM (inactive)
- GI50 [7]: > 100 µM (inactive)
- GI50 [8]: > 100 µM (inactive)
- GI50 [9]: > 100 µM (inactive)
- GI50 [10]: > 100 µM (inactive)
- GI50 [11]: > 100 µM (inactive)
- GI50 [12]: > 100 µM (inactive)
- GI50 [13]: > 100 µM (inactive)
- GI50 [14]: > 100 µM (inactive)
- GI50 [15]: > 100 µM (inactive)
- GI50 [16]: > 100 µM (inactive)
- GI50 [17]: > 100 µM (inactive)
- GI50 [18]: > 100 µM (inactive)

SMILES: COC1OC(=O)C(OC)C(OC)C1OC (stereo not given)
- GI50 [1]: > 100 µM (inactive)
- GI50 [2]: > 100 µM (inactive)
- GI50 [3]: > 100 µM (inactive)
- GI50 [4]: > 100 µM (inactive)
- GI50 [5]: > 100 µM (inactive)
- GI50 [6]: > 100 µM (inactive)
- GI50 [7]: > 100 µM (inactive)
- GI50 [8]: > 100 µM (inactive)
- GI50 [19]: > 100 µM (inactive)
- GI50 [9]: > 100 µM (inactive)
- GI50 [10]: > 100 µM (inactive)
- GI50 [11]: > 100 µM (inactive)
- GI50 [12]: > 100 µM (inactive)
- GI50 [13]: > 100 µM (inactive)
- GI50 [14]: > 100 µM (inactive)
- GI50 [16]: > 100 µM (inactive)
- GI50 [17]: > 100 µM (inactive)
- GI50 [18]: > 100 µM (inactive)

SMILES: CCn1c(-c2ccc(/N=N/Nc3ccc(-c4n[nH]c(=S)n4CC)cc3)cc2)n[nH]c1=S
- GI50 [1]: 2.17 µM (inactive)
- GI50 [2]: 2.44 µM (inactive)
- GI50 [3]: 3.19 µM (inactive)
- GI50 [5]: 4.18 µM (inactive)
- GI50 [6]: 2.93 µM (inactive)
- GI50 [7]: 1.49 µM (inactive)
- GI50 [8]: 3.15 µM (inactive)
- GI50 [19]: 3.3 µM (inactive)
- GI50 [9]: 3.46 µM (inactive)
- GI50 [10]: 1.97 µM (inactive)
- GI50 [11]: 3.33 µM (inactive)
- GI50 [12]: 4.24 µM (inactive)
- GI50 [13]: 28.8 µM (inactive)
- GI50 [14]: 2.57 µM (inactive)
- GI50 [15]: 2.57 µM (inactive)
- GI50 [16]: 0.861 µM (active)
- GI50 [17]: 2.33 µM (inactive)
- GI50 [18]: 2.74 µM (inactive)

SMILES: CCOC(=O)C(C)NC(=O)C(C)NC(=O)C(C)NC(=O)C(C)NC(=O)C(C)NC(=O)OCc1ccccc1 (stereo not given)
- GI50 [1]: > 100 µM (inactive)
- GI50 [2]: > 100 µM (inactive)
- GI50 [3]: > 100 µM (inactive)
- GI50 [4]: > 100 µM (inactive)
- GI50 [5]: > 100 µM (inactive)
- GI50 [6]: > 100 µM (inactive)
- GI50 [7]: > 100 µM (inactive)
- GI50 [8]: > 100 µM (inactive)
- GI50 [9]: > 100 µM (inactive)
- GI50 [10]: > 100 µM (inactive)
- GI50 [11]: > 100 µM (inactive)
- GI50 [12]: > 100 µM (inactive)
- GI50 [13]: > 100 µM (inactive)
- GI50 [14]: > 100 µM (inactive)
- GI50 [15]: > 100 µM (inactive)
- GI50 [16]: > 100 µM (inactive)
- GI50 [17]: > 100 µM (inactive)
- GI50 [18]: > 100 µM (inactive)

SMILES: O=c1oc2ncccc2n1Cc1ccc([N+](=O)[O-])cc1
- GI50 [1]: > 100 µM (inactive)
- GI50 [2]: > 100 µM (inactive)
- GI50 [3]: > 100 µM (inactive)
- GI50 [5]: > 100 µM (inactive)
- GI50 [6]: > 100 µM (inactive)
- GI50 [7]: > 100 µM (inactive)
- GI50 [8]: > 100 µM (inactive)
- GI50 [19]: > 100 µM (inactive)
- GI50 [9]: > 100 µM (inactive)
- GI50 [10]: > 100 µM (inactive)
- GI50 [11]: > 100 µM (inactive)
- GI50 [12]: > 100 µM (inactive)
- GI50 [13]: > 100 µM (inactive)
- GI50 [14]: > 100 µM (inactive)
- GI50 [15]: > 100 µM (inactive)
- GI50 [16]: > 100 µM (inactive)
- GI50 [17]: 26.5 µM (inactive)
- GI50 [18]: > 100 µM (inactive)

SMILES: Oc1ccccc1CNCc1nc2ccccc2[nH]1
- GI50 [1]: 65.5 µM (inactive)
- GI50 [2]: 89.5 µM (inactive)
- GI50 [3]: > 100 µM (inactive)
- GI50 [4]: > 100 µM (inactive)
- GI50 [5]: > 100 µM (inactive)
- GI50 [6]: 40.9 µM (inactive)
- GI50 [7]: 22.4 µM (inactive)
- GI50 [8]: > 100 µM (inactive)
- GI50 [19]: > 100 µM (inactive)
- GI50 [9]: 57 µM (inactive)
- GI50 [10]: > 100 µM (inactive)
- GI50 [11]: > 100 µM (inactive)
- GI50 [12]: 26.1 µM (inactive)
- GI50 [13]: 15.9 µM (inactive)
- GI50 [14]: 41.5 µM (inactive)
- GI50 [16]: > 100 µM (inactive)
- GI50 [17]: 11.2 µM (inactive)
- GI50 [18]: 69 µM (inactive)

SMILES: Cc1cc(C)c(C#N)c(SC(=S)NC(=O)c2ccccc2)n1
- GI50 [1]: > 100 µM (inactive)
- GI50 [2]: > 100 µM (inactive)
- GI50 [3]: > 100 µM (inactive)
- GI50 [4]: > 100 µM (inactive)
- GI50 [5]: > 100 µM (inactive)
- GI50 [7]: > 100 µM (inactive)
- GI50 [8]: > 100 µM (inactive)
- GI50 [19]: > 100 µM (inactive)
- GI50 [10]: > 100 µM (inactive)
- GI50 [11]: > 100 µM (inactive)
- GI50 [12]: > 100 µM (inactive)
- GI50 [13]: > 100 µM (inactive)
- GI50 [14]: > 100 µM (inactive)
- GI50 [15]: > 100 µM (inactive)
- GI50 [16]: > 100 µM (inactive)
- GI50 [17]: > 100 µM (inactive)
- GI50 [18]: > 100 µM (inactive)
